{"source": "patent US11931324B2", "about": "“Pharmaceutical composition for prevention or treatment of osteoarthritis comprising obtusifolin, derivative thereof, or pharmaceutically acceptable salt thereof as active ingredient” (KOREA INSTITUTE OF SCIENCE AND TECHNOLOGY, priority 2021, dated 2024)", "key": {"prostaglandin E2 (PGE2)": {"system": "prostaglandin E2 (PGE2)", "experiment": "PGE2 production in IL-1β-treated chondrocytes (PGE2 Immunoassay Kit)", "type": "cell-based, mouse", "method": "(§1) PGE2 production was evaluated using a PGE2 Immunoassay Kit (R & D System, Minneapolis, Minnesota, USA). Primary articular chondrocytes of mouse were seeded in a 96-well plate (about 2×10^4 cells/well). The level of secreted PGE2 in the primary chondrocytes of mouse treated with obtusifolin and IL-1β (about 1 ng/mL) was measured from the […]. By using an EnzCheck Gelatinase/Collagenase Assay kit (Molecular Probes, Carlsbad, CA, USA), total collagenase activity of the articular chondrocytes cultured in a medium conditioned with obtusifolin and IL-1β (about 1 ng/mL) was measured. The collagenase activity was quantified using a VICTOR X3 microplate reader (PerkinElmer, Waltham, MA, USA) at Ex/Em=490/530 nm according to the protocol provided by the manufacturer. […] After culturing the transfected cells in a complete medium for about 24 hours, luciferase activity was evaluated using an analysis kit (Promega, Madison, WI, USA), and the evaluated activity was normalized by β-galactosidase.\n(§2) In detail, chondrocytes treated with pro-inflammatory cytokine, IL-1β (about 1 ng/mL), for about 24 hours were treated with obtusifolin (about 0 μM to about 200 μM) or Celecoxib (about 50 μM). Then, in the resulting chondrocytes, the expression levels of matrix metalloproteinase 3 (MMP3), matrix metalloproteinase 13 (MMP13), and cyclooxygenase 2 (COX2) were measured by RT-PCR and qRT-PCR. […]"}, "[1]": {"system": "matrix metalloproteinase 13 (MMP13)", "experiment": "MMP13 expression in IL-1β-treated chondrocytes (RT-PCR, qRT-PCR)", "type": "cell-based, mouse", "method": "(§3) Interleukin 1 beta (IL-1β) purchased from GenScript (Piscataway, NJ, USA) was dissolved in purified water. Obtusifolin and celecoxib were purchased from Sigma-Aldrich (St. Louis, MO, USA). Primary chondrocytes of the mice were cultured for 4 days under conditions of a temperature of about 37° C. and about 5% CO2. Afterwards, IL-1β (about 1 ng/mL) and either of obtusifolin or celecoxib were treated and cultured for about 24 hours. Then, the cultured chondrocytes were collected after about 5 days. To confirm the signal transduction pathway regulated by obtusifolin, the chondrocytes were pre-treated with obtusifolin or celecoxib and cultured for about 24 hours. […]\n(§4) Chondrocyte RNAs were isolated using Trizol and chloroform. […] Transcription levels were quantified by qRT-PCR (ABI, Beverley, UK; StepOnePlus Real-Time PCR System). […]\n(§5) In detail, chondrocytes treated with pro-inflammatory cytokine, IL-1β (about 1 ng/mL), for about 24 hours were treated with obtusifolin (about 0 μM to about 200 μM) or Celecoxib (about 50 μM). Then, in the resulting chondrocytes, the expression levels of matrix metalloproteinase 3 (MMP3), matrix metalloproteinase 13 (MMP13), and cyclooxygenase 2 (COX2) were measured by RT-PCR and qRT-PCR. In addition, the activity level of collagenase and the expression level of prostaglandin (PGE2) were measured. […]"}, "primary chondrocytes": {"system": "primary chondrocytes", "experiment": "lactate dehydrogenase (LDH) cytotoxicity assay", "type": "cell-based, mouse", "details": "24 hours, concentration of about 200 μM or less (FIG. 1)", "method": "(§6) Mouse chondrocytes isolated from femur and tibial plateau were obtained from ICR mice of 5-days old. Cells were cultured in Dulbecco's Modified Eagle's medium to which about 10% fetal bovine serum and about 1% penicillin/streptomycin, and then grown in an incubator under conditions maintained with about 5% CO2 and a temperature of about 37° C. C57BL/6 mice (male, 10-weeks old, weighing about 18 g to 20 g, and n=5) were purchased from DBL (Chungcheongbuk-do, South Korea). The C57BL/6 mice were housed at a temperature of about 23° C. and exposed to a light-dark cycle of about 12 hours. Food and water were provided regularly. All animal experiments were performed under the approval of the Ajou University Animal Care and Use Committee.\nThe primary chondrocytes were treated with obtusifolin (0 μM, about 25 μM, about 50 μM, about 100 μM, and about 200 μM) and cultured for about 24 hours. Then, the supernatant of the culture was collected and allowed for a reaction using a LDH-cytotoxicity assay kit (K311-400; BioVision). According to the recommendations provided by the kit manufacturer, values were measured.\nIn this experimental example, cytotoxicity of obtusifolin was measured using a lactate dehydrogenase-assay to determine whether obtusifolin affected chondrocytes. Detailed experimental methods were described in Reference Example."}, "cyclooxygenase 2 (COX2)": {"system": "cyclooxygenase 2 (COX2)", "experiment": "COX2 expression in IL-1β-treated chondrocytes (RT-PCR, qRT-PCR)", "type": "cell-based, mouse", "method": "as §3, §4, §5"}, "collagenase": {"system": "collagenase", "experiment": "total collagenase activity of IL-1β-treated chondrocytes (EnzCheck Gelatinase/Collagenase Assay kit)", "type": "cell-based, mouse", "method": "as §1, §2"}, "p65": {"system": "p65", "experiment": "p65 phosphorylation (NF-κB signal transduction) in IL-1β-treated chondrocytes, Western blotting and densitometry", "type": "cell-based, mouse", "method": "as §3, §4\nHere, as a loading control group, Erk1/2 was used. Band intensity was quantified by densitometry (AlphaEase FC 4.0; Alpha Innotech).\nIn detail, the chondrocytes treated with the pro-inflammatory cytokine, IL-1β (about 1 ng/mL), were collected, and the phosphorylation levels of p38, JNK, and p65 were measured through Western blotting. […] The chondrocytes were collected after the culture, and the phosphorylation level of p65 was measured through Western blotting and densitometry. […]"}, "[2]": {"system": "mice that have undergone DMM surgery", "experiment": "cartilage destruction induced by DMM surgery, mouse model, oral administration", "type": "in vivo", "method": "as §6\nAccording to a known technique, destabilization of the medial meniscus (DMM) surgery was performed on a mouse of about 10 week old to induce OA. Here, a Sham-operated mouse was used as a control group. […]\nA mouse cartilage sample obtained from the mouse undergoing the DMM surgery was fixed about 4% para-formaldehyde followed by dehydration for about 2 weeks in about 0.5 mol/L EDTA (pH 8.0), to decalcify. […] The cartilage destruction was measured by Safranin O staining and scored using an Osteoarthritis Research […] International (OARSI) grading system.\nData values were expressed as mean±SEM after repeated experiments. […] Histological data were quantified based on an ordinal grading system including OARSI grades, subchondral bone plate thickness scores, and osteophyte grades, using non-parametric statistical methods. […]\nIn detail, the DMM surgery or shame surgery was performed on mice, and after about 4 weeks of the surgery, obtusifolin (about 10 mg/kg, about 50 mg/kg, or about 100 mg/kg) was administered to each mouse every day for 6 weeks. […] The degree of cartilage destruction was analyzed by analyzing images obtained after the staining. In detail, the OARSI grades, the degree of osteophyte formation, and a thickness of the subchondral bone were measured. […]"}, "[3]": {"system": "matrix metalloproteinase 3 (MMP3)", "experiment": "MMP3 expression in IL-1β-treated chondrocytes (RT-PCR, qRT-PCR)", "type": "cell-based, mouse", "method": "as §3, §4, §5"}, "[4]": {"details": "chondrocytes treated with IL-1β (about 1 ng/mL), obtusifolin about 0 μM to about 200 μM (FIG. 2C)"}, "[5]": {"details": "obtusifolin about 100 μM to about 200 μM vs Celecoxib about 50 μM"}, "[6]": {"details": "chondrocytes treated with IL-1β (about 1 ng/mL), obtusifolin about 0 μM to about 200 μM (FIGS. 2A, 2B)"}}}
{"smiles": "COc1c(O)c(C)cc2c1C(=O)c1c(O)cccc1C2=O", "note": "[obtusifolin]", "values": [{"measurement": "expression of PGE2", "setting": "prostaglandin E2 (PGE2); [4]", "result": "decreased in a dose-dependent manner"}, {"measurement": "effect of reducing expression of PGE2 compared with Celecoxib", "setting": "prostaglandin E2 (PGE2); [5]", "result": "the same or similar level of effects as Celecoxib"}, {"measurement": "expression of MMP13", "setting": "[1]; [6]", "result": "decreased again"}, {"measurement": "effect of reducing expression of MMP13 compared with Celecoxib", "setting": "[1]; [5]", "result": "the same or similar level of effects as Celecoxib"}, {"measurement": "cytotoxicity", "setting": "primary chondrocytes", "result": "did not exhibit cytotoxicity"}, {"measurement": "expression level of COX2", "setting": "cyclooxygenase 2 (COX2); [6]", "result": "decreased in a dose-dependent manner"}, {"measurement": "effect of reducing expression of COX2 compared with Celecoxib", "setting": "cyclooxygenase 2 (COX2); [5]", "result": "the same or similar level of effects as Celecoxib"}, {"measurement": "activity of collagenase", "setting": "collagenase; [4]", "result": "decreased in a dose-dependent manner"}, {"measurement": "effect of reducing activity of collagenase compared with Celecoxib", "setting": "collagenase; [5]", "result": "the same or similar level of effects as Celecoxib"}, {"measurement": "inhibition of phosphorylation of P65 compared with Celecoxib", "setting": "p65; [5]", "result": "the same or similar level to that of Celecoxib"}, {"measurement": "phosphorylation of P65", "setting": "p65; pre-treated 24 hours with obtusifolin about 0 μM to 200 μM, then IL-1β (about 1 ng/mL) 10 minutes, as concentration increased (FIGS. 3B, 3C)", "result": "the phosphorylation of P65 was inhibited"}, {"measurement": "formation of osteophytes", "setting": "[2]; DMM surgery mice, oral about 10, 50 or 100 mg/kg every day for 6 weeks (FIG. 5C)", "result": "reduced in a dose-dependent manner"}, {"measurement": "degree of cartilage destruction (Safranin O staining)", "setting": "[2]; DMM surgery mice, oral about 10, 50 or 100 mg/kg every day for 6 weeks from 4 weeks after surgery (FIG. 5A)", "result": "decreased in a dose-dependent manner"}, {"measurement": "effects according to the dose concentration in sham surgery mice", "setting": "[2]; sham surgery mice, oral about 10, 50 or 100 mg/kg every day for 6 weeks (FIGS. 5A to 5D)", "result": "no difference in the effects"}, {"measurement": "expression level of MMP3", "setting": "[3]; [6]", "result": "decreased in a dose-dependent manner"}, {"measurement": "effect of reducing expression of MMP3 compared with Celecoxib", "setting": "[3]; [5]", "result": "the same or similar level of effects as Celecoxib"}]}
